According to paper PMC7469376 (ACS Omega, 2020):

Columns and labels:
HEK293 = conditions: read-out: IC50 against HEK293; after 72 h of treatment; ref Storch et al. 94; cited from earlier work
H1299 cells = test: MTT cell viability assay, H1299; format: cell-based; conditions: Homo sapiens, NCI-H1299, 48 h, read-out: IC50, cell viability (MTT)
[1] = system: caspase-3 activity in H1299 cells; test: Caspase-3 colorimetric assay, H1299; format: cell-based, human; conditions: 50 and 100 μM, 24 h, compared to untreated cells
A549 cells = test: MTT cell viability assay, A549; format: cell-based; conditions: Homo sapiens, A549, 48 h, read-out: IC50, cell viability (MTT)
SphK1 [2] = target: T1, SphK1 (Homo sapiens, UniProt Q9NYA1); test: Malachite green-based ATPase enzyme inhibition assay; format: biochemical
T1 sequence (Q9NYA1 whole entry): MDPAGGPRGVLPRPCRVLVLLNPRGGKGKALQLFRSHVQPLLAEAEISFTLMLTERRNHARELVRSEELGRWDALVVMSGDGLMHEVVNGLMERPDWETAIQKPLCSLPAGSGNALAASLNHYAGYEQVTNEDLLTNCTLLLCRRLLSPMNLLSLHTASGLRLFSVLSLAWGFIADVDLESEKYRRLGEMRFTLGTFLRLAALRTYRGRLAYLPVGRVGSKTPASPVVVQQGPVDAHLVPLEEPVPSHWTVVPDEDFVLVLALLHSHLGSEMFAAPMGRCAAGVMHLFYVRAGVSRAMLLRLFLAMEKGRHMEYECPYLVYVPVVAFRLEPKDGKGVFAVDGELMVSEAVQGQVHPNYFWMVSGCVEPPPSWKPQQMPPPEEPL

SphK1 [3] = target: T1, SphK1; test: Isothermal titration calorimetry of harmaline with SphK1; format: binding
[4] = system: caspase-3 activity in A549 cells; test: Caspase-3 colorimetric assay, A549; format: cell-based, human; conditions: 50 and 100 μM, 24 h, compared to untreated cells

## COc1ccc2c3c([nH]c2c1)C(C)=NCC3 [harmaline]
HEK293
  IC50: > 200 µM
H1299 cells
  IC50: 48.2 ± 1.76 µM
[1]
  caspase-3 activity (free pNA liberated per hour): gradual increase in the caspase-3 activity
A549 cells
  IC50: 67.9 ± 2.91 µM
SphK1 [2]; IC50, SphK1 ATPase activity, harmaline 0 to 30 μM, three independent experiments
  IC50: 6.13 µM
SphK1 [2]; three-parameter Hill fit
  hill slope of SphK1 inhibition curve: 0.57
SphK1 [3]; ITC, site 1
  association constant Ka1: Ka1 = 1.89 × 10^4 ± 1.3 × 10^3 M^–1
  enthalpy change ΔH1: ΔH1 = −3205 ± 197 cal/mol
  ΔG1 (free energy change): ΔG1 = −5.83 kcal/mol
  ΔS1: ΔS1 = 8.82 cal/mol/deg
SphK1 [3]; ITC, site 2
  association constant Ka2: Ka2 = 1.49 × 10^5 ± 8.6 × 10^3 M^–1
  enthalpy change ΔH2: ΔH2 = 1895 ± 257 cal/mol
  ΔG2 (free energy change): ΔG2 = −7.04 kcal/mol
  ΔS2: ΔS2 = 30.0 cal/mol/deg
SphK1 [3]; ITC, site 3
  association constant Ka3: Ka3 = 3.50 × 10^4 ± 2.0 × 10^3 M^–1
  enthalpy change ΔH3: ΔH3 = 272.3 ± 190 cal/mol
  ΔG3 (free energy change): ΔG3 = −5.99 kcal/mol
  ΔS3: ΔS3 = 21.7 cal/mol/deg
SphK1 [3]; ITC, site 4
  association constant Ka4: Ka4 = 4.58 × 10^3 ± 2.9 × 10^2 M^–1
  enthalpy change ΔH4: ΔH4 = −9574 ± 467 cal/mol
  ΔG4 (free energy change): ΔG4 = −4.98 kcal/mol
  ΔS4: ΔS4 = −15.4 cal/mol/deg
SphK1 [3]; dissociation constant KD1, ITC, site 1
  Kd: 52.9 µM
SphK1 [3]; dissociation constant KD2, ITC, site 2
  Kd: 6.7 µM
SphK1 [3]; dissociation constant KD3, ITC, site 3
  Kd: 28.6 µM
SphK1 [3]; dissociation constant KD4, ITC, site 4
  Kd: 218 µM
[4]
  caspase-3 activity (free pNA liberated per hour): gradual increase in the caspase-3 activity
